In ChEMBL document CHEMBL1143424, “Diversity of penA alterations and subtypes in Neisseria gonorrhoeae strains from Sydney, Australia, that are less susceptible to ceftriaxone” (2007):
≈ marks a conversion by molar mass, not a printed value.

Tests used:
Neisseria gonorrhoeae [1] = test: microbe, parasite or virus in culture
Description: Antimicrobial activity against Neisseria gonorrhoeae isolate with PBP2 pattern 10 mutant NG-MAST sequence type 326 by agar plate dilution method

Neisseria gonorrhoeae [2] = test: microbe, parasite or virus in culture; remark: listed apart in the source
Description: Antimicrobial activity against Neisseria gonorrhoeae isolate with PBP2 pattern 10 mutant NG-MAST sequence type 1677 by agar plate dilution method

Neisseria gonorrhoeae [3] = test: microbe, parasite or virus in culture; remark: listed apart in the source
Description: Antimicrobial activity against Neisseria gonorrhoeae isolate with PBP2 pattern 13 mutant NG-MAST sequence type 1409 by agar plate dilution method

Neisseria gonorrhoeae [4] = test: microbe, parasite or virus in culture; remark: listed apart in the source
Description: Antimicrobial activity against Neisseria gonorrhoeae isolate with PBP2 pattern 5 mutant NG-MAST sequence type 1688 by agar plate dilution method

Neisseria gonorrhoeae [5] = test: microbe, parasite or virus in culture; remark: listed apart in the source
Description: Antimicrobial activity against Neisseria gonorrhoeae isolate with PBP2 pattern 9 mutant NG-MAST sequence type 5 by agar plate dilution method

Neisseria gonorrhoeae [6] = test: Antimicrobial activity against Neisseria gonorrhoeae isolate with PBP2 pattern 13 mutant NG-MAST sequence type 1413 by agar plate dilution method; format: functional
Neisseria gonorrhoeae [7] = test: microbe, parasite or virus in culture; remark: listed apart in the source
Description: Antimicrobial activity against Neisseria gonorrhoeae isolate with PBP2 pattern 9 mutant NG-MAST sequence type 21 by agar plate dilution method

Neisseria gonorrhoeae [8] = test: Antimicrobial activity against Neisseria gonorrhoeae isolate with PBP2 pattern 13 mutant NG-MAST sequence type 1425 by agar plate dilution method; format: functional
Neisseria gonorrhoeae [9] = test: Antimicrobial activity against Neisseria gonorrhoeae isolate with PBP2 pattern 13 mutant NG-MAST sequence type 1148 by agar plate dilution method; format: functional
Neisseria gonorrhoeae [10] = test: Antimicrobial activity against Neisseria gonorrhoeae isolate with PBP2 pattern 17 mutant NG-MAST sequence type 1620 by agar plate dilution method; format: functional
Neisseria gonorrhoeae [11] = test: microbe, parasite or virus in culture; remark: listed apart in the source
Description: Antimicrobial activity against Neisseria gonorrhoeae isolate with PBP2 pattern 12 mutant NG-MAST sequence type 1703 by agar plate dilution method

Neisseria gonorrhoeae [12] = test: microbe, parasite or virus in culture; remark: listed apart in the source
Description: Antimicrobial activity against Neisseria gonorrhoeae isolate with PBP2 pattern 7 mutant NG-MAST sequence type 1622 by agar plate dilution method

Neisseria gonorrhoeae [13] = test: microbe, parasite or virus in culture; remark: listed apart in the source
Description: Antimicrobial activity against Neisseria gonorrhoeae isolate with PBP2 pattern 5 mutant NG-MAST sequence type 1410 by agar plate dilution method

Neisseria gonorrhoeae [14] = test: microbe, parasite or virus in culture; remark: listed apart in the source
Description: Antimicrobial activity against Neisseria gonorrhoeae isolate with PBP2 pattern 12 mutant NG-MAST sequence type 604 by agar plate dilution method

Neisseria gonorrhoeae [15] = test: microbe, parasite or virus in culture; remark: listed apart in the source
Description: Antimicrobial activity against Neisseria gonorrhoeae isolate with PBP2 pattern 20 mutant NG-MAST sequence type 211 by agar plate dilution method

Neisseria gonorrhoeae [16] = test: microbe, parasite or virus in culture; remark: listed apart in the source
Description: Antimicrobial activity against Neisseria gonorrhoeae isolate with PBP2 pattern 10 mutant NG-MAST sequence type 1424 by agar plate dilution method

Neisseria gonorrhoeae [17] = test: Antimicrobial activity against Neisseria gonorrhoeae isolate with PBP2 pattern 7 mutant NG-MAST sequence type 1422 by agar plate dilution method; format: functional
Neisseria gonorrhoeae [18] = test: Antimicrobial activity against Neisseria gonorrhoeae isolate with PBP2 pattern 4 mutant NG-MAST sequence type 327 by agar plate dilution method; format: functional
Neisseria gonorrhoeae [19] = test: microbe, parasite or virus in culture; remark: listed apart in the source
Description: Antimicrobial activity against Neisseria gonorrhoeae isolate with PBP2 pattern 7 mutant NG-MAST sequence type 1619 by agar plate dilution method

Neisseria gonorrhoeae [20] = test: microbe, parasite or virus in culture; remark: listed apart in the source
Description: Antimicrobial activity against Neisseria gonorrhoeae isolate bropyst serotype with PBP2 pattern 12 mutant NG-MAST sequence type 604 by agar plate dilution method

Neisseria gonorrhoeae [21] = test: microbe, parasite or virus in culture; remark: listed apart in the source
Description: Antimicrobial activity against Neisseria gonorrhoeae isolate with PBP2 pattern 10 mutant NG-MAST sequence type 835 by agar plate dilution method

Neisseria gonorrhoeae [22] = test: microbe, parasite or virus in culture; remark: listed apart in the source
Description: Antimicrobial activity against Neisseria gonorrhoeae isolate with PBP2 pattern 11 mutant NG-MAST sequence type 1420 by agar plate dilution method

Neisseria gonorrhoeae [23] = test: microbe, parasite or virus in culture; remark: listed apart in the source
Description: Antimicrobial activity against Neisseria gonorrhoeae isolate with PBP2 pattern 10 mutant NG-MAST sequence type 1414 by agar plate dilution method

Neisseria gonorrhoeae [24] = test: Antimicrobial activity against Neisseria gonorrhoeae isolate with PBP2 pattern 18 mutant NG-MAST sequence type 1621 by agar plate dilution method; format: functional
Neisseria gonorrhoeae [25] = test: microbe, parasite or virus in culture; remark: listed apart in the source
Description: Antimicrobial activity against Neisseria gonorrhoeae isolate with PBP2 pattern 12 mutant NG-MAST sequence type 1426 by agar plate dilution method

Neisseria gonorrhoeae [26] = test: microbe, parasite or virus in culture; remark: listed apart in the source
Description: Antimicrobial activity against Neisseria gonorrhoeae isolate with PBP2 pattern 10 mutant NG-MAST sequence type 925 by agar plate dilution method

Neisseria gonorrhoeae [27] = test: microbe, parasite or virus in culture; remark: listed apart in the source
Description: Antimicrobial activity against Neisseria gonorrhoeae isolate with PBP2 pattern 13 mutant NG-MAST sequence type 1624 by agar plate dilution method

Neisseria gonorrhoeae [28] = test: microbe, parasite or virus in culture; remark: listed apart in the source
Description: Antimicrobial activity against Neisseria gonorrhoeae isolate with PBP2 pattern 4 mutant NG-MAST sequence type 69 by agar plate dilution method

Neisseria gonorrhoeae [29] = test: microbe, parasite or virus in culture; remark: listed apart in the source
Description: Antimicrobial activity against Neisseria gonorrhoeae isolate with PBP2 pattern 13 mutant NG-MAST sequence type 1623 by agar plate dilution method

Neisseria gonorrhoeae [30] = test: microbe, parasite or virus in culture; remark: listed apart in the source
Description: Antimicrobial activity against Neisseria gonorrhoeae isolate with PBP2 pattern 17 mutant NG-MAST sequence type 1342 by agar plate dilution method

Neisseria gonorrhoeae [31] = test: microbe, parasite or virus in culture; remark: listed apart in the source
Description: Antimicrobial activity against Neisseria gonorrhoeae isolate with PBP2 pattern 13 mutant NG-MAST sequence type 1676 by agar plate dilution method

Neisseria = test: Antimicrobial activity against multiresistant Gonococcus; format: functional
Neisseria gonorrhoeae [32] = test: microbe, parasite or virus in culture; remark: listed apart in the source
Description: Antimicrobial activity against Neisseria gonorrhoeae isolate with PBP2 pattern 18 mutant NG-MAST sequence type 864 by agar plate dilution method

Neisseria gonorrhoeae [33] = test: microbe, parasite or virus in culture; remark: listed apart in the source
Description: Antimicrobial activity against Neisseria gonorrhoeae isolate with PBP2 pattern 11 mutant NG-MAST sequence type 5 by agar plate dilution method

Question: CO/N=C(\C(=O)N[C@@H]1C(=O)N2C(C(=O)O)=C(CSc3nc(=O)c(O)nn3C)CS[C@H]12)c1csc(N)n1 [CEFTRIAXONE] was tested. Which MIC (Neisseria gonorrhoeae [1]) did it give?
Answer: Its MIC is 0.06 µg/mL (≈ 0.108 µM).

Question: What about the MIC (Neisseria gonorrhoeae [2]) of the same compound?
Answer: Its MIC is 0.06 µg/mL (≈ 0.108 µM).

Question: And the MIC (Neisseria gonorrhoeae [3])?
Answer: Its MIC is 0.06 µg/mL (≈ 0.108 µM).

Question: And the MIC (Neisseria gonorrhoeae [4])?
Answer: The MIC was 0.06 µg/mL (≈ 0.108 µM).

Question: And the MIC (Neisseria gonorrhoeae [5])?
Answer: The MIC was 0.06 µg/mL (≈ 0.108 µM).

Question: And the MIC (Neisseria gonorrhoeae [6])?
Answer: The MIC was 0.12 µg/mL (≈ 0.216 µM).

Question: And the MIC (Neisseria gonorrhoeae [7])?
Answer: Its MIC is 0.06 µg/mL (≈ 0.108 µM).

Question: What about the MIC (Neisseria gonorrhoeae [8]) of the same compound?
Answer: Its MIC is 0.12 µg/mL (≈ 0.216 µM).

Question: What about the MIC (Neisseria gonorrhoeae [9]) of the same compound?
Answer: The MIC was 0.12 µg/mL (≈ 0.216 µM).

Question: And the MIC (Neisseria gonorrhoeae [10])?
Answer: Its MIC is 0.12 µg/mL (≈ 0.216 µM).

Question: What about the MIC (Neisseria gonorrhoeae [11]) of the same compound?
Answer: Its MIC is 0.06 µg/mL (≈ 0.108 µM).

Question: And the MIC (Neisseria gonorrhoeae [12])?
Answer: Its MIC is 0.06 µg/mL (≈ 0.108 µM).

Question: And the MIC (Neisseria gonorrhoeae [13])?
Answer: Its MIC is 0.06 µg/mL (≈ 0.108 µM).

Question: And the MIC (Neisseria gonorrhoeae [14])?
Answer: Its MIC is 0.06 µg/mL (≈ 0.108 µM).

Question: And the MIC (Neisseria gonorrhoeae [15])?
Answer: Its MIC is 0.06 µg/mL (≈ 0.108 µM).

Question: What about the MIC (Neisseria gonorrhoeae [16]) of the same compound?
Answer: The MIC was 0.06 µg/mL (≈ 0.108 µM).

Question: What about the MIC (Neisseria gonorrhoeae [17]) of the same compound?
Answer: The MIC was 0.12 µg/mL (≈ 0.216 µM).

Question: And the MIC (Neisseria gonorrhoeae [18])?
Answer: The MIC was 0.12 µg/mL (≈ 0.216 µM).

Question: And the MIC (Neisseria gonorrhoeae [19])?
Answer: Its MIC is 0.06 µg/mL (≈ 0.108 µM).

Question: What about the MIC (Neisseria gonorrhoeae [20]) of the same compound?
Answer: Its MIC is 0.06 µg/mL (≈ 0.108 µM).

Question: What about the MIC (Neisseria gonorrhoeae [21]) of the same compound?
Answer: Its MIC is 0.06 µg/mL (≈ 0.108 µM).

Question: What about the MIC (Neisseria gonorrhoeae [22]) of the same compound?
Answer: The MIC was 0.06 µg/mL (≈ 0.108 µM).

Question: And the MIC (Neisseria gonorrhoeae [23])?
Answer: The MIC was 0.06 µg/mL (≈ 0.108 µM).

Question: And the MIC (Neisseria gonorrhoeae [24])?
Answer: The MIC was 0.12 µg/mL (≈ 0.216 µM).

Question: What about the MIC (Neisseria gonorrhoeae [25]) of the same compound?
Answer: Its MIC is 0.06 µg/mL (≈ 0.108 µM).

Question: And the MIC (Neisseria gonorrhoeae [26])?
Answer: Its MIC is 0.06 µg/mL (≈ 0.108 µM).

Question: And the MIC (Neisseria gonorrhoeae [27])?
Answer: The MIC was 0.06 µg/mL (≈ 0.108 µM).

Question: And the MIC (Neisseria gonorrhoeae [28])?
Answer: The MIC was 0.06 µg/mL (≈ 0.108 µM).

Question: What about the MIC (Neisseria gonorrhoeae [29]) of the same compound?
Answer: The MIC was 0.06 µg/mL (≈ 0.108 µM).

Question: And the MIC (Neisseria gonorrhoeae [30])?
Answer: Its MIC is 0.06 µg/mL (≈ 0.108 µM).

Question: And the MIC (Neisseria gonorrhoeae [31])?
Answer: Its MIC is 0.06 µg/mL (≈ 0.108 µM).

Question: And the MIC (Neisseria)?
Answer: Its MIC is 0.5 µg/mL (≈ 0.902 µM).

Question: And the MIC (Neisseria gonorrhoeae [32])?
Answer: Its MIC is 0.06 µg/mL (≈ 0.108 µM).

Question: And the MIC (Neisseria gonorrhoeae [33])?
Answer: Its MIC is 0.06 µg/mL (≈ 0.108 µM).
